# “Also recorded” adds a separate entry of the source.
# Key:
# HMG-CoA reductase mRNA [1] = assay: HMG-CoA reductase mRNA expression by Q-PCR in Hepa1-6 cells; format: cell-based; settings: Hepa1-6 mouse liver hepatoma cells
# Method: (§1) After treatment, cells were stimulated with 1 mM dbcAMP for 24 hours. At the end of the incubation, total cell RNA was extracted using. RNA STAT-60 (Tel-Test Inc, Friendswood, Tex.) according to the manufacturer's instructions. HMG-CoA reductase mRNA was quantified by Q-PCR using the ABI Prism 7700 sequence detection system (Perlin-Elmer/Applied Biosystems, Foster City, Calif.). RT reaction was performed using TaqMan® Reverse Transcription Reagents with 1 g total RNA and random hexamers as primers for each reaction according to the manufacturer's instructions. For quantifying mouse HMG-CoA reductase mRNA with Q-PCR, the primers were designed according to GenBank Accession Number BC 019782 using PE/AB Primer Express software, which is specifically designed for the selection of primers and probes. The forward primer was 5′-[…]-3′ (22 nucleotides) and reverse primer was 5′-[…]-3′ (23 nucleotides), respectively. The primers were synthesized by Bio-Synthesis Inc. (Lewisville, Tex.). Reactions were performed in a reaction mixture consisting of a 20 l volume solution containing 10 l SYBR® Green PCR Master Mix and 1 l primers mix (5 M each) with 2 l cDNA.
# [2] = system: H295R human adrenal tumor cells; assay: dbcAMP-induced cortisol synthesis in H295R cells (RIA); format: cell-based
# Method: (§2) Culture media were then changed and cells were stimulated with 1 mM dbcAMP and the treatment for 24 to 48 hours. […] The synthesis of 20-OH progesterone and progesterone in Y1 and MA-10 cell media respectively were measured by RIA (Brown et al., 1992). H295R human adrenal tumor cells were seeded in 48-well plates at 10^5 cells/well and incubated for 24 hours. […] At the end of the incubation time period, cells were treated with 1 mM dbcAMP for 48 hours. Cortisol levels in the media were determined by radioimmunoassay as previously described (Amri et al., 1996).
# cytochrome P-450SCC = biological target: T1, cytochrome P-450SCC (Mus musculus, UniProt Q9QZ82); assay: 22R-hydroxycholesterol-induced 20-OH progesterone formation (P-450SCC activity) in Y1 cells; format: cell-based
# T1 construct: endogenous in cells; host or cells: Y1 mouse adrenal tumor cells
# T1 sequence (Q9QZ82 37-526): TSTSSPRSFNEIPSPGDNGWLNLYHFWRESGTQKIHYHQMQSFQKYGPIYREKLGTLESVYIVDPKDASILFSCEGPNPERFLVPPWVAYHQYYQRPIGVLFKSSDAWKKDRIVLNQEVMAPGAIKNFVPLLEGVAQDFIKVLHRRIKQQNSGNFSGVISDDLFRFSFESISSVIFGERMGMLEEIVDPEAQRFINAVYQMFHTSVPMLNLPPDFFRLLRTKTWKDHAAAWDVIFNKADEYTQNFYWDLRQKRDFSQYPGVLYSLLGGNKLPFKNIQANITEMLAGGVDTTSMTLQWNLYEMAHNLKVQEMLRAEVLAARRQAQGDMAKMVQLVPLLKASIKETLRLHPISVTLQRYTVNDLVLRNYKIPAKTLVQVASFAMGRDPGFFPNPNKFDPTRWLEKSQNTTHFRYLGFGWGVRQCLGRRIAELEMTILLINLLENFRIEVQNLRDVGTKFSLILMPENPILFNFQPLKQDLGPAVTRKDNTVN
# Method: as §2
# HMG-CoA reductase mRNA [3] = assay: HMG-CoA reductase mRNA expression by Q-PCR in UT-1 cells; format: cell-based, Chinese hamster; settings: dbcAMP induced
# Method: as §1
# HMG-CoA reductase mRNA [4] = assay: HMG-CoA reductase mRNA expression by Q-PCR in Y1 cells; format: cell-based, mouse; settings: for dbcAMP-induced HMG-CoA reductase mRNA levels: Y1 cells, 24 hours pretreatment, dbcAMP 24 hours
# Method: as §1
# [5] = system: steroidogenesis acute regulatory protein (StAR); assay: Immunoblot of StAR protein levels in Y1 cells; format: cell-based, mouse; settings: 1 μM procaine, 48 hour treatment, 3 hour dbcAMP
# Method: At the end of the treatment protocol described above, Y1 cells at 90% confluency were washed 2 times with PBS, sonicated 15 seconds in extraction buffer and centrifuged at 18,500 g for 15 minutes at 4° C. Pellets were resuspended in ice-cold lysis buffer (1% Nonidet 40 in extraction buffer), sonicated briefly, and incubated on ice for 1 hour. After centrifugation (22,500 g×30 min, 4° C.), the supernatant was mixed in sample buffer 6× (0.27 M SDS, 0.6 M dithiothreitol, 0.18 M bromphenol blue in 7 ml of 0.5 M Tris-HCl, pH 6.8, and 3 ml glycerol) and boiled for 5 minutes. Proteins were subjected to SDS-PAGE (4-20% gradient SDS polyacrylamide gel) and electrophoretically transferred onto nitrocellulose membranes. The transblot sheets were blocked with 5% non fat dry milk in 25 mM Tris HCl, pH 7.5, 150 mM NaCl, and 0.1% Tween 20 overnight at 4° C. Membranes were then incubated with appropriately diluted primary antibodies 1:800 for anti-P-450SCC (Research Diagnostics Inc. Flanders, N.J.) and 1:200 for anti-StAR (Amri et al., 1996), and the reaction was detected by a peroxidase-conjugated secondary antibody (Santa Cruz Biotechnology, Santa Cruz, Calif.) and enhanced chemiluminescence (Amersham Life, Arlington Heights, Ill.). The densities of the appropriate bands were determined using the OptiQuant Acquisition & Analysis software (Packard BioScience).
# [6] = system: MA-10 mouse Leydig tumor cells; assay: dbcAMP-induced progesterone synthesis in MA-10 cells (RIA); format: cell-based
# Method: as §2
# [7] = system: Y1 mouse adrenal tumor cells; assay: dbcAMP-induced 20á-hydroxyprogesterone synthesis in Y1 cells (RIA); format: cell-based
# Method: as §2
# [8] = system: H295R human adrenal tumor cells; assay: MTT cell viability / mitochondrial function, H295R cells; format: cell-based; settings: H295R cells exposed to dbcAMP
# Method: (§3) Cell viability at the end of the incubation protocol described above was assessed using the mitochondrial integrity 3-(4,5-dimethylthiazol-2-yl)-2,5-diphenyl tetrazolium bromide (MTT) assay (Trevigen, Gaithersburg, Md.). Briefly, 10 l of the MTT solution were added to the cells in 100 l medium. After an incubation period of 4 hours, 100 l of detergent were added and cells were incubated overnight at 37° C. Formazan blue formation was quantified at 600 nm and 690 nm using the Victor quantitative detection spectrophotometer (EGG-Wallac, Gaithersburg, Md.) and the results expressed as (OD600-OD690).
# [9] = system: MA-10 mouse Leydig tumor cells; assay: MTT cell viability, MA-10 cells; format: cell-based
# Method: as §3
compound,measurement,setting,value
CCN(CC)CCOC(=O)c1ccc(N)cc1 [procaine],dbcAMP-induced HMG-CoA reductase mRNA levels,HMG-CoA reductase mRNA [1],inhibited; also recorded: robust
same,dbcAMP-stimulated cortisol production,"[2]; H295R cells, 1 mM dbcAMP",inhibited the dbcAMP-stimulated cortisol production in a dose-dependent manner
same,basal cortisol production,"[2]; H295R cells, no dbcAMP",without effecting basal cortisol production
same,sensitivity of human adrenal tumor cells versus mouse adrenal cells,[2]; H295R versus Y1,less sensitive
same,effect of 22R-hydroxycholesterol on steroidogenesis,cytochrome P-450SCC,did not inhibit; also recorded: did not affect
same,inhibition of HMG-CoA reductase mRNA expression,HMG-CoA reductase mRNA [3],minor and not significant
same,dbcAMP-induced HMG-CoA reductase mRNA levels,HMG-CoA reductase mRNA [4],reduced in a dose-dependent manner
same,dbcAMP-induced HMG-CoA reductase mRNA levels,HMG-CoA reductase mRNA [4]; listed as Procaine,inhibited in a dose-dependent manner
same,basal HMG-CoA mRNA levels,HMG-CoA reductase mRNA [4]; no dbcAMP,without affecting
same,levels of the mature 30 kDa StAR protein,[5],did not affect
same,levels of the mature 30 kDa StAR protein,[5]; listed as Procaine,had no effect
same,dbcAMP-induced progesterone synthesis,[6],did not affect
same,dbcAMP-induced 20á-hydroxyprogesterone production,"[7]; Y1 cells, 1 mM dbcAMP, increasing concentrations",decreased in a dose-dependent manner
same,basal steroid formation by Y1 cells,[7]; no dbcAMP stimulus,without affecting
same,dbcAMP-induced change of mitochondrial function (MTT),[8],reversed the effect of dbcAMP on mitochondrial function
same,dbcAMP-induced change of mitochondrial function (MTT),[8]; listed as Procaine,protected against the dbc-AMP-induced change of mitochondrial function
same,cell viability (MTT assay),[9],did not affect
